Results: patent publication US6858396B2, “Positively charged non-natural amino acids, methods of making and using thereof in peptides” (Medical University of South Carolina, priority 1996, dated 2005)
Where two headings read alike, the source gives them in different places. Blank lines part the entries; values can stand above or below the compound they belong to. Square brackets hold non-standard residues; d marks the D form. Ends that are not written are not given here. Peptide text beside a SMILES is read from it. hLys = NCCCCC[C@H](N)C(=O)O

Tests used:
[1] = Source text: (§1) Thrombin is a major control point of the blood coagulation cascade, and inhibitors are of interest to combat thrombotic diseases.
Thrombin [2] = biological target: T1, Thrombin (Homo sapiens, UniProt P00734); experiment: Thrombin inhibition (Ki); type: biochemical
Source text: as §1

Trypsin = biological target: T2, Trypsin (Bos taurus, UniProt P00760); experiment: Trypsin inhibition (Ki); type: biochemical; settings: at its limit of solubility in water
T2 construct: gene PRSS1
T2 sequence (P00760 24-246): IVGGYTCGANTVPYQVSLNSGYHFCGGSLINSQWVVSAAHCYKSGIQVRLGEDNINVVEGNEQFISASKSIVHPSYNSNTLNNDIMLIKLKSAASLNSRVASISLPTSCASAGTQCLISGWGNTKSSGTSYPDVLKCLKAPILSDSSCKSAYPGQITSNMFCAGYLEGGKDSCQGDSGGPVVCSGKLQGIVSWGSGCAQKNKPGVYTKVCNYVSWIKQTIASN
Source text: as §1

NT receptor = experiment: Hypothermia in rats after I.V. or I.C. injection of NT(8-13) derivatives (brain uptake across the BBB); type: in vivo
Source text: Peptides 36, 39, 42, and 45 are NT(8-13) with non-natural amino acids 32-35 (Scheme L), respectively, were substituted for the Arg^(8) residue.

Thrombin [3] = biological target: T1, Thrombin; experiment: Competitive inhibition of thrombin in vitro, chromogenic substrate (D)-Phe-Pip-Arg-p-NA; type: biochemical; set-up: 0.01 units of human thrombin (Sigma); purchased Sigma; settings: for % Inhibition: peptide 20 μM, 0.01 units human thrombin, pH 7.5, 25° C.
Experimental: A (D)-Phe-Pro-Arg-Ala analogue containing non-natural amino acid (7) (as the racemic mixture in the side chain) in place of Arg was synthesized and compared to (D)-Phe-Pro-Arg-Ala as a competitive inhibitor of thrombin in vitro. The molecule referred to as 7 is Formula I, R1=[…], R2=H, R3=H, R13=H and N=4. The stereochemistry at C2 is racemic (equal D- and L-forms present).
Peptides were incubated individually at 20 μM concentrations with 0.01 units of human thrombin (Sigma) and saturating concentrations of the chromogenic substrate (D)-Phe-Pip-Arg-p-NA at pH 7.5 and 25° C. in 0.1 M phosphate buffer containing 0.2 M NaCl and 0.5% PEG (5c). Initial rates were determined by monitoring formation of p-NA at 405 nm in the absence and presence of the indicated peptides to determine % inhibition. Standard errors were<5%.

[4] = in vivo; cited from earlier work

Compound: N=C(N)NCCC[C@H](N)C(=O)O [Arg, arginine, reference compound]
RP-HPLC Retention Time [1]: 20.9 ± 0.02 min
Ki (Thrombin [2]; as the N-α-DNS, —COO-Pip derivatives, read-out: Thrombin K12): 83 ± 24 nM

Compound: CCNC(=N)NCCC[C@H](N)C(=O)O [Compound 31, N(γ)ethyl-Arg]
lipophilicity based on RP-HPLC ([1]; compared with arginine): more lipophilic
RP-HPLC Retention Time ([1]; measure of lipophilicity, as the N-α-DNS, —COO-Pip derivatives): 23.1 ± 0.01 min
Ki (Thrombin [2]): 190 ± 66 nM
increase in thrombin/trypsin Ki selectivity ratio compared with arginine (Thrombin [2]; KI (Thrombin/Trypsin), 31 versus arginine): ≥ 60 fold
inhibition of trypsin at limit of solubility in water (Trypsin): does not inhibit trypsin

Compound: Arg^(8)-Arg^(9)-Pro^(10)-Tyr^(11)-Ile^(12)-Leu^(13)-COOH [NT(8-13), reference compound]
crossing of the blood brain barrier [4]: does not cross the blood brain barrier
activity (hypothermia) / uptake into brain after I.V. injection (NT receptor; rats, I.V., 1.0 mg doses (FIG. 1A)): no activity

Next, values leading:

improvement upon the previously evaluated peptides NT-1 and NT66L (NT receptor; brain uptake): ≥ 300 fold
uptake into brain (NT receptor; rats, single 0.2-mg I.V. dose versus I.C., estimated by potency ratios (FIG. 1B)): roughly 28%
Compound: CC[C@H](C)[C@H](NC(=O)[C@H](Cc1ccc(O)cc1)NC(=O)[C@@H]1CCCN1C(=O)[C@H](CCCNC(=N)N)NC(=O)[C@@H](N)CCCCCN)C(=O)N[C@@H](CC(C)C)C(=O)O [Peptide 36] (H-[hLys]RPYIL-OH)

% Inhibition (Thrombin [3]): 82%
better competitive inhibitor than the parent peptide (Thrombin [3]; relative to (D)-Phe-Pro-Arg-Ala): ~25%
Compound: (D)-Phe-Pro-7-Ala

% Inhibition (Thrombin [3]): 65%
Compound: (D)-Phe-Pro-Arg-Ala ([dF]PRA) [reference compound]
